Measurements as given in patent publication US20050014952A1, “Novel thiazoline derivatives as selective androgen receptor modulators (SARMS)” (priority 2003, published 2005).
pIC50: −log10 of the molar value.

Molecular target: T1, androgen receptor (Rattus norvegicus, UniProt P15207)
T1 construct: 5 pmol androgen receptor LBD (Panvera); purchased Panvera
T1 sequence (P15207 651-882 limits assumed): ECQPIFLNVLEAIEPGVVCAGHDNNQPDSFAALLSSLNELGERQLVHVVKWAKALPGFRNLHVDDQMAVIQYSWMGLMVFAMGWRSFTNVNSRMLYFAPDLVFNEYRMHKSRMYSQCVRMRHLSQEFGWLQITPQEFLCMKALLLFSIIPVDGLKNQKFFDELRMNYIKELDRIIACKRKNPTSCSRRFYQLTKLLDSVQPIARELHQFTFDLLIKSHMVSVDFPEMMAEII
Assay: Androgen Receptor Filtration Binding Assay ([3H] R1881 tracer)
Settings: @ 10 μM test compound; Androgen Receptor Binding Results
Experimental: In Vitro Assay—Androgen Receptor Filtration Binding Assay
The assay was run on a 96 well plate with each well filled with total reaction volume 150 μL, of a solution containing 5 pmol androgen receptor LBD (Panvera) or 30 μL of freshly prepared rat cytosol, 0.5 nM [^3H] R1881 tracer (NEN), 1.5 μL (10 μM) test compound or vehicle (diluted in 30% DMSO, final concentration of DMSO 0.75%) and […] of TED buffer. (TED buffer contains 10 mM Tris.HCl pH 7.4, 1 mM sodium molybdate (60 mg/250 mL), 1.5 mM EDTA, 1 mM DTT and 10% (v/v) glycerol.)
On day one, the solution containing receptor, tracer and TED buffer was distributed onto a 96 well plate. Diluted test compound or control vehicle was then added to individual wells and the plate incubated at 4° C. overnight.
On day two, to each well was then added 20 μL human γ-globulin (ICN 823102), prepared at 25 mg/ml in TE pH 8.0, and 55 μL 40% polyethylene glycol 8000 (J T Baker U222-08), prepared in TE pH 8.0. The plate was incubated at 4° C. for 60 minutes. During incubation, the harvester was rinsed with 10% PEG 8000, prepared in TE pH 8.0 and the GF/C Unifilter-96 prewet with 10% PEG. The binding reaction was filtered, the retentate was washed three times with 10% PEG and dried under vacuum for about four minutes, then dried at 50° C. for 5 min and then bottom sealed. 25 μL of Microscint-20 (Packard) was added to the filter wells and top sealed. The plate wells were then counted on a TopCount (Packard).
Selected compounds of the present invention were tested for binding to the androgen receptor according to the procedure described above with results as listed in Table 2. Negative number(s) indicate that there is no antagonist activity for the test compound. The compound may however have agonist activity, which was not tested for.

**Q.** With `N#Cc1ccc(NC(=O)C2CSC(c3ccc(F)cc3)=N2)cc1C(F)(F)F` (stereo not drawn) [Cmpd #1, 2-(4-fluoro-phenyl)-4,5-dihydro-thiazole-4-carboxylic Acid (3-trifluoromethyl-4-cyano-phenyl)-amide] as the compound, how does the inhibition at 10 µM read?
**A.** The inhibition at 10 µM was 50%.

Same assay, conditions: Androgen Receptor Binding Results

**Q.** `O=C(Nc1ccc(Cl)c(C(F)(F)F)c1)C1CSC(c2ccc(Cl)cc2)=N1` (stereo not drawn) [Cmpd #11, 2-(4-chloro-phenyl)-4,5-dihydro-thiazole-4-carboxylic acid (4-chloro-3-trifluoromethyl-phenyl)-amide] was tested. Which pIC50 did it give?
**A.** The pIC50 was 5.46.

**Q.** With `CC1(C(=O)Nc2ccc(Cl)c(C(F)(F)F)c2)CSC(c2ccc(F)cc2)=N1` (stereo not drawn) [compound 12] as the compound, how does the pIC50 read?
**A.** The pIC50 was under 5.00.

**Q.** With `CC1(C(=O)Nc2ccc([N+](=O)[O-])c(C(F)(F)F)c2)CSC(c2ccc(F)cc2)=N1` (stereo not drawn) [compound 13] as the compound, how does the pIC50 read?
**A.** Its pIC50 is under 5.00.

Molecular target: T1, androgen receptor
Assay: as above
Settings: @ 1 μM test compound; negative values indicate no antagonist activity; cmpd 4: two separate synthesis batches; cmpds 5 and 7: average of 2

**Q.** With `N#Cc1ccc(NC(=O)C2CSC(c3ccc(F)cc3)=N2)cc1C(F)(F)F` (stereo not drawn) [Cmpd #1, 2-(4-fluoro-phenyl)-4,5-dihydro-thiazole-4-carboxylic Acid (3-trifluoromethyl-4-cyano-phenyl)-amide] as the compound, how does the inhibition at 1 µM read?
**A.** Its inhibition at 1 µM is 28.5%.

**Q.** With `N#Cc1ccc(NC(=O)C2CSC(c3ccc(F)cc3)=N2)cc1` (stereo not drawn) [Cmpd #2, 2-(4-fluoro-phenyl)-4,5-dihydro-thiazole-4-carboxylic Acid (4-cyano-phenyl)-amide] as the compound, how does the inhibition at 1 µM read?
**A.** Its inhibition at 1 µM is -26%.

**Q.** For `N#Cc1ccc(NC(=O)C2CSC(c3cccc(F)c3)=N2)cc1C(F)(F)F` (stereo not drawn) [Cmpd #3, 2-(3-fluoro-phenyl)-4,5-dihydro-thiazole-4-carboxylic Acid (4-cyano-3-trifluoromethyl-phenyl)-amide], which inhibition at 1 µM is on record?
**A.** The inhibition at 1 µM was 8.1%.

**Q.** For `O=C(Nc1ccc(F)c(C(F)(F)F)c1)C1CSC(c2ccc(F)cc2)=N1` (stereo not drawn) [Cmpd #7, 2-(4-fluoro-phenyl)-4,5-dihydro-thiazole-4-carboxylic Acid (4-fluoro-3-trifluoromethyl-phenyl)-amide], which inhibition at 1 µM is on record?
**A.** The inhibition at 1 µM was -24.2%.

**Q.** `N#Cc1ccc(NC(=O)C2CSC(c3ccc(Cl)cc3)=N2)cc1C(F)(F)F` (stereo not drawn) [Cmpd #9, 2-(4-chloro-phenyl)-4,5-dihydro-thiazole-4-carboxylic acid (4-cyano-3-trifluoromethyl-phenyl)-amide] was tested. Which inhibition at 1 µM did it give?
**A.** The inhibition at 1 µM was 41.5%.

**Q.** For `O=C(Nc1ccc([N+](=O)[O-])c(C(F)(F)F)c1)C1CSC(c2ccc(Cl)cc2)=N1` (stereo not drawn) [Cmpd #10, 2-(4-chloro-phenyl)-4,5-dihydro-thiazole-4-carboxylic acid (4-nitro-3-trifluoromethyl-phenyl)-amide], which inhibition at 1 µM is on record?
**A.** The inhibition at 1 µM was 60.5%.

**Q.** `O=C(Nc1ccc(Cl)c(C(F)(F)F)c1)C1CSC(c2ccc(Cl)cc2)=N1` (stereo not drawn) [Cmpd #11, 2-(4-chloro-phenyl)-4,5-dihydro-thiazole-4-carboxylic acid (4-chloro-3-trifluoromethyl-phenyl)-amide] was tested. Which inhibition at 1 µM did it give?
**A.** Its inhibition at 1 µM is 30.5%.

**Q.** Which inhibition at 1 µM does the source give for `O=C(Nc1ccc(F)c(C(F)(F)F)c1)C1CSC(c2ccc(Cl)cc2)=N1` (stereo not drawn) [Cmpd #14, 2-(4-chloro-phenyl)-4,5-dihydro-thiazole-4-carboxylic acid (4-fluoro-3-trifluoromethyl-phenyl)-amide] here?
**A.** The inhibition at 1 µM was 1.5%.

**Q.** With `O=C(Nc1ccc(Cl)cc1)C1CSC(c2ccc(Cl)cc2)=N1` (stereo not drawn) [Cmpd #16, 2-(4-chloro-phenyl)-4,5-dihydro-thiazole-4-carboxylic Acid (4-chloro-phenyl)-amide] as the compound, how does the inhibition at 1 µM read?
**A.** Its inhibition at 1 µM is 12%.

**Q.** With `O=C(Nc1ccc(Cl)c(C(F)(F)F)c1)C1CSC(c2cccc(F)c2)=N1` (stereo not drawn) [Cmpd #17, 2-(3-fluoro-phenyl)-4,5-dihydro-thiazole4-carboxylic Acid (4-chloro-3-trifluoromethyl-phenyl)-amide] as the compound, how does the inhibition at 1 µM read?
**A.** Its inhibition at 1 µM is -34%.

**Q.** With `O=C(Nc1ccc(F)c(C(F)(F)F)c1)C1CSC(c2cccc(F)c2)=N1` (stereo not drawn) [Cmpd #18, 2-(3-fluoro-phenyl)-4,5-dihydro-thiazole-4-carboxylic Acid (4-fluoro-3-trifluoromethyl-phenyl)-amide] as the compound, how does the inhibition at 1 µM read?
**A.** The inhibition at 1 µM was -19%.

**Q.** `CC1(C)SC(c2ccc(F)cc2)=NC1C(=O)Nc1ccc(C#N)c(C(F)(F)F)c1` (stereo not drawn) [Cmpd #19, 2-(4-fluoro-phenyl)-5,5-dimethyl-4,5-dihydro-thiazole-4-carboxylic Acid (4-cyano-3-trifluoromethyl-phenyl)-amide] was tested. Which inhibition at 1 µM did it give?
**A.** Its inhibition at 1 µM is -1%.

**Q.** `CC1(C)SC(c2ccc(F)cc2)=NC1C(=O)Nc1ccc([N+](=O)[O-])c(C(F)(F)F)c1` (stereo not drawn) [Cmpd #20, 2-(4-fluoro-phenyl)-5,5-dimethyl-4,5-dihydro-thiazole-4-carboxylic Acid (4-nitro-3-trifluoromethyl-phenyl)-amide] was tested. Which inhibition at 1 µM did it give?
**A.** Its inhibition at 1 µM is 29%.

**Q.** For `CC1(C)SC(c2ccc(F)cc2)=NC1C(=O)Nc1ccc(Cl)c(C(F)(F)F)c1` (stereo not drawn) [Cmpd #21, 2-(4-fluoro-phenyl)-5,5-dimethyl-4,5-dihydro-thiazole-4-carboxylic Acid (4-chloro-3-trifluoromethyl-phenyl)-amide], which inhibition at 1 µM is on record?
**A.** The inhibition at 1 µM was 29%.

**Q.** `CC1(C)SC(c2ccc(Cl)cc2)=NC1C(=O)Nc1ccc(Cl)c(C(F)(F)F)c1` (stereo not drawn) [Cmpd #22, 2-(4-chloro-phenyl)-5,5-dimethyl-4,5-dihydro-thiazole-4-carboxylic Acid (4-chloro-3-trifluoromethyl-phenyl)-amide] was tested. Which inhibition at 1 µM did it give?
**A.** Its inhibition at 1 µM is 0%.

**Q.** For `CC1(C)SC(c2ccc(Cl)cc2)=NC1C(=O)Nc1cc(F)c(C#N)cc1F` (stereo not drawn) [Cmpd #23, 2-(4-chloro-phenyl)-5,5-dimethyl-4,5-dihydro-thiazole-4-carboxylic Acid (4-cyano-2,5-difluoro-phenyl)-amide], which inhibition at 1 µM is on record?
**A.** Its inhibition at 1 µM is -5%.

**Q.** Which inhibition at 1 µM does the source give for `O=C(Nc1cccc(C(F)(F)F)c1F)C1CSC(c2ccc(Cl)cc2)=N1` (stereo not drawn) [Cmpd #24, 2-(4-chloro-phenyl)-4,5-dihydro-thiazole-4-carboxylic Acid (2-fluoro-3-trifluoromethyl-phenyl)-amide] here?
**A.** Its inhibition at 1 µM is 0.74%.

**Q.** With `O=C(Nc1cccc(C(F)(F)F)c1F)C1CSC(c2ccc(F)cc2)=N1` (stereo not drawn) [Cmpd #25, 2-(4-fluoro-phenyl)-4,5-dihydro-thiazole-4-carboxylic Acid (2-fluoro-3-trifluoromethyl-phenyl)-amide] as the compound, how does the inhibition at 1 µM read?
**A.** The inhibition at 1 µM was -8%.

**Q.** `O=C(Nc1ccc(Cl)c(C(F)(F)F)c1)C1CSC(c2cccc(Cl)c2)=N1` (stereo not drawn) [Cmpd #26, 2-(3-chloro-phenyl)-4,5-dihydro-thiazole-4-carboxylic Acid (4-chloro-3-trifluoromethyl-phenyl)-amide] was tested. Which inhibition at 1 µM did it give?
**A.** The inhibition at 1 µM was 15%.

**Q.** Which inhibition at 1 µM does the source give for `N#Cc1ccc(NC(=O)C2CSC(c3cccc(Cl)c3)=N2)cc1C(F)(F)F` (stereo not drawn) [Cmpd #27, 2-(3-chloro-phenyl)-4,5-dihydro-thiazole-4-carboxylic Acid (4-cyano-3-trifluoromethyl-phenyl)-amide] here?
**A.** Its inhibition at 1 µM is 34%.

**Q.** How did the inhibition at 1 µM turn out when `O=C(Nc1ccc(S(=O)(=O)C(F)(F)F)cc1)C1CSC(c2ccc(F)cc2)=N1` (stereo not drawn) [Cmpd #28, 2-(4-fluoro-phenyl)-4,5-dihydro-thiazole-4-carboxylic Acid (4-trifluoromethanesulfonyl-phenyl)-amide] was run?
**A.** The inhibition at 1 µM was -6.3%.

**Q.** `O=C(Nc1ccc(S(=O)(=O)C(F)(F)F)cc1)C1CSC(c2ccc(Cl)cc2)=N1` (stereo not drawn) [Cmpd #29, 2-(4-chloro-phenyl)-4,5-dihydro-thiazole-4-carboxylic Acid (4-trifluoromethanesulfonyl-phenyl)-amide] was tested. Which inhibition at 1 µM did it give?
**A.** The inhibition at 1 µM was 25%.

**Q.** For `O=C(Nc1ccc([N+](=O)[O-])c(C(F)(F)F)c1)C1CSC(c2cccc(Cl)c2)=N1` (stereo not drawn) [Cmpd #30, 2-(3-chloro-phenyl)-4,5-dihydro-thiazole-4-carboxylic Acid (4-nitro-3-trifluoromethyl-phenyl)-amide], which inhibition at 1 µM is on record?
**A.** Its inhibition at 1 µM is 7%.

**Q.** How did the inhibition at 1 µM turn out when `O=C(Nc1ccc(S(=O)(=O)C(F)(F)F)cc1)C1CSC(c2cccc(Cl)c2)=N1` (stereo not drawn) [Cmpd #31, 2-(3-chloro-phenyl)-4,5-dihydro-thiazole-4-carboxylic Acid (4-trifluoromethanesulfonyl-phenyl)-amide] was run?
**A.** The inhibition at 1 µM was 10%.

**Q.** Which inhibition at 1 µM does the source give for `O=C(Nc1cccc(C(F)(F)F)c1F)C1CSC(c2cccc(Cl)c2)=N1` (stereo not drawn) [Cmpd #32, 2-(3-chloro-phenyl)-4,5-dihydro-thiazole4-carboxylic Acid (2-fluoro-3-trifluoromethyl-phenyl)-amide] here?
**A.** Its inhibition at 1 µM is 8.5%.

**Q.** Which inhibition at 1 µM does the source give for `CC1(C(=O)Nc2ccc(C#N)c(C(F)(F)F)c2)CSC(c2ccc(F)cc2)=N1` (stereo not drawn) [Cmpd #33, 2-(4-fluoro-phenyl)-4-methyl-4,5-dihydro-thiazole-4-carboxylic Acid (4cyano-3-trifluoromethyl-phenyl)-amide] here?
**A.** The inhibition at 1 µM was 27%.

**Q.** With `O=C(Nc1ccc(Cl)c(C(F)(F)F)c1)C1CSC(c2ccc(F)cc2)=N1` (stereo not drawn) [compound 5, 2-(4-fluoro-phenyl)-4,5-dihydro-thiazole-4-carboxylic Acid (4-chloro-3-trifluoromethyl-phenyl)-amide] as the compound, how does the inhibition at 1 µM read?
**A.** The inhibition at 1 µM was 12.3%.

**Q.** How did the inhibition at 1 µM turn out when `CC1(C(=O)Nc2ccc(Cl)c(C(F)(F)F)c2)CSC(c2ccc(F)cc2)=N1` (stereo not drawn) [compound 12] was run?
**A.** The inhibition at 1 µM was 52%.

**Q.** For `CC1(C(=O)Nc2ccc([N+](=O)[O-])c(C(F)(F)F)c2)CSC(c2ccc(F)cc2)=N1` (stereo not drawn) [compound 13], which inhibition at 1 µM is on record?
**A.** The inhibition at 1 µM was 29%.
